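Growth conditions: 96-well plates. Treatment: test compound, 48 hours, 5 concentrations. Analysis: linear interpolation between bracketing concentrations; unreached endpoints set to highest concentration. Abbreviation: GI50, concentration required for 50% inhibition of growth. Definition used: TGI = concentration required for complete inhibition of growth.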
Legend:
Test in all cases: inhibition of tumour cell growth, NCI panel, 48 h
[1] = system: T-47D breast
[2] = system: TK-10 renal
[3] = system: LOX IMVI melanoma
[4] = system: NCI-H460 lung
[5] = system: NCI/ADR-RES ovarian
[6] = system: SNB-75 CNS
[7] = system: IGROV1 ovarian
[8] = system: HCT-116 colon
[9] = system: LXFL 529 NSCLC
[10] = system: KM20L2 colon

| SMILES | GI50 [1] [µM] | TGI [1] [µM] | GI50 [2] [µM] | TGI [2] [µM] | GI50 [3] [µM] | TGI [3] [µM] | GI50 [4] [µM] | TGI [4] [µM] | GI50 [5] [µM] | TGI [5] [µM] | GI50 [6] [µM] | TGI [6] [µM] | GI50 [7] [µM] | TGI [7] [µM] | GI50 [8] [µM] | TGI [8] [µM] | TGI [9] [µM] | TGI [10] [µM] |
| --- | --- | --- | --- | --- | --- | --- | --- | --- | --- | --- | --- | --- | --- | --- | --- | --- | --- | --- |
| CN(C)c1ccc(Nc2c3ccccc3nc3ccccc23)cc1 | 1.56 | 4.01 | 0.937 | 4.19 | 0.585 | 2.26 | 0.367 | 1.72 | 1.12 | 2.93 | 0.99 | 4.09 | 0.59 | 2.91 | 0.38 | 1.7 |  |  |
| O=[N+]([O-])/C=C/c1c(Cl)cccc1Cl |  | 9.39 |  | 8.25 |  | 3.16 |  | 21 |  | 12.5 |  | 32.4 |  | 10.3 |  | 14 |  |  |
| CCC(=O)N1C/C(=C/c2ccc(Cl)cc2)C(=O)/C(=C/c2ccc(Cl)cc2)C1 | 1.38 | 3.27 | 1.76 | 3.52 | 0.161 | 0.354 | 1.12 | 3.56 | 1.79 | 12.2 | 1.37 | 3.1 | 0.998 | 2.55 | 0.179 | 0.435 |  |  |
| Cc1c(C(=O)C/C(=N/NC(=O)c2ccccc2)C(=O)Nc2ccc(Cl)cc2)[n+](=O)c2ccccc2n1[O-] |  |  |  | > 100 |  | > 100 |  | > 100 |  |  |  | > 100 |  | > 100 |  | > 100 | > 100 |  |
| COc1cc(-c2nc3ccccc3s2)ccc1OCCCCOc1cc2c(cc1OC)C(=O)N1CCC[C@H]1C=N2 | 0.407 | 2.03 | 2.27 | 8.81 | 0.726 | 2.22 | 1 | 3.4 | 2.13 | 6.12 | 1.4 | 2.84 | 3.06 | 12.7 | 0.57 | 2.19 |  |  |
| C[C@H]1[C@H](C)N1CC(O)Cn1ccnc1[N+](=O)[O-] (some centres undefined) |  | > 100 |  | > 100 |  | > 100 |  | > 100 |  | > 100 |  | > 100 |  | > 100 |  | > 100 |  |  |
| C/C(=C\c1ccn(-c2ccccc2N)n1)[C@@H]1C[C@@H]2O[C@]2(C)CCC[C@H](C)[C@H](O)[C@@H](C)C(=O)C(C)(C)[C@@H](O)CC(=O)O1 | 0.0692 | > 50 | 0.143 | > 50 | 0.0331 | > 50 | 0.0201 | > 50 | 0.154 | 7.21 | 0.00907 | 0.186 | 0.247 | > 50 | 0.0191 | > 50 |  |  |
| Cc1cc(N(CCC#N)S(=O)(=O)c2ccccc2)ccc1/C=C1\N=C(c2ccc(Cl)cc2)OC1=O |  |  |  |  |  | > 100 |  | > 100 |  |  |  |  |  | > 100 |  | > 100 | > 100 | > 100 |
| O=[N+]([O-])c1cc[n+]([O-])c2ccccc12 | 0.321 | 4.25 | 0.187 | 0.707 | 0.156 | 0.418 | 0.033 | 0.162 | 0.965 | 4.86 | 0.176 | 0.465 | 0.259 | 1.03 | 0.0698 | 0.316 |  |  |
| COc1cc2c(cc1OC)-c1ncc3c(OC)ccc(OC)c3c1C2 | 29 | > 100 | 16.8 | 43.6 | 16.7 | > 100 | 20.9 | > 100 | 23.6 | > 100 | > 100 | > 100 | 13.9 | 48.5 | 17.8 | > 100 |  |  |
| [2H]C([2H])([2H])NC(=O)c1nnc(NC(=O)C2CC2)cc1Nc1cccc(-c2ncn(C)n2)c1OC | 32.4 | > 100 | 8.28 | > 100 | 14.5 | > 100 | > 100 | > 100 | 51.3 | > 100 | 15 | > 100 | 6.96 | > 100 | 9.79 | > 100 |  |  |
| C=CC(=O)N1CCC(c2ccc(C(N)=O)c(-c3ccc(Oc4ccccc4)cc3)n2)CC1 | 16.1 | 95.7 | 19.2 | 99.4 | 26.3 | > 100 | 46.2 | > 100 | 30.3 | > 100 | 17 | > 100 | 19.1 | > 100 | 35.9 | > 100 |  |  |
| CCOC(=O)NC(=O)c1cn(CCN2CCN(C(=O)CNC(=O)CNC(=O)Cn3cc(C(=O)NC(=O)OCC)c(=O)[nH]c3=O)CC2)c(=O)[nH]c1=O |  |  |  | > 100 |  | > 100 |  | > 100 |  |  |  | > 100 |  |  |  | > 100 | > 100 | > 100 |
| CC(C)C1CO[C@]2(C)CCC(=O)N12 (some centres undefined) |  |  |  | > 100 |  |  |  | > 100 |  |  |  | > 100 |  | > 100 |  | > 100 | > 100 | > 100 |
| c1ccc(-c2nn3c(c2-c2ccnc4cc(OCCN5CCOCC5)ccc24)CCC3)nc1 | > 100 | > 100 | > 100 | > 100 | > 45.6 | > 100 | 33.6 | > 100 | 52.4 | > 100 | 59 | > 100 | 29.6 | > 100 | 31 | > 100 |  |  |
| COc1ccc2c(c1)nc(NNC(=O)c1cnccn1)c1cccn12 | 0.348 | 3.99 | 0.157 | 3.18 | 0.0837 | 1.57 | 0.125 | 4.02 | 0.25 | 3.26 | 0.458 | 3.06 | 0.107 | 2.22 | 0.143 | 2.71 |  |  |
| CN(C)C(=O)Nc1nc2cc(Cl)c(Cl)cc2[nH]1 | 0.655 | > 100 | 4.71 | > 100 | 1.87 | > 100 | 0.44 | 30 | 0.507 | 9.37 | 3.08 | > 35.2 | 1.15 | > 100 | 0.463 | > 35 |  |  |

— PubChem BioAssay (NCI)
